# Test results published in PubChem BioAssay AID330 (DTP/NCI, 2004).
# Where “and” joins values, the source holds several entries; their conditions need not be identical. Equal values may be shown once. Inconclusive results and toxic doses are left out.
# Test system: P388 leukemia ip, CD2F1 mice, survival T/C
# Test: NCI In Vivo Anticancer Drug Screen. Data for tumor model P388 Leukemia (intraperitoneal) in CD2F1 (CDF1) mice
# Conditions: endpoint: median survival time, higher = longer survival
# In short: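 Mice carrying the transplanted tumor received test compound or vehicle. Survival was recorded in each group, and the value is the treated-group measurement divided by that of the vehicle-treated control group.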
# [1] = dose: 100.0 mg/kg/injection, schedule: Q04DX002 (ip), vehicle: Klucel (hydroxypropylcellulose) (HPC)
# [2] = dose: 50.0 mg/kg/injection, schedule: Q01DX009 (ip), vehicle: saline with Tween-80
structure (smiles),measurement,setting,value
NC(Cc1ccccc1)C(=O)OCN1C(=O)C2C3C=CC(C2C1=O)C1C2C(=O)N(COC(=O)C(N)Cc4ccccc4)C(=O)C2C31 (configuration not stated),T/C,"dose: 12.5 mg/kg/injection, schedule: Q01DX009 (ip), vehicle: water",103 % of control
same,T/C,"dose: 25.0 mg/kg/injection, schedule: Q01DX009 (ip), vehicle: saline",100 % of control and 102 % of control
same,T/C,"dose: 25.0 mg/kg/injection, schedule: Q01DX009 (ip), vehicle: water",106 % of control and 113 % of control and 103 % of control
same,T/C,"dose: 50.0 mg/kg/injection, schedule: Q01DX009 (ip), vehicle: saline",110 % of control
same,T/C,"dose: 50.0 mg/kg/injection, schedule: Q01DX009 (ip), vehicle: water",109 % of control and 124 % of control
same,T/C,"dose: 100.0 mg/kg/injection, schedule: Q01DX009 (ip), vehicle: saline",184 % of control
same,T/C,"dose: 100.0 mg/kg/injection, schedule: Q01DX009 (ip), vehicle: water",189 % of control and 197 % of control
same,T/C,"dose: 150.0 mg/kg/injection, schedule: Q01DX009 (ip), vehicle: saline",192 % of control
COc1cccc2c1C(=O)c1c(O)c3c(c(O)c1C2=O)C[C@@](O)(/C(C)=N/NC(=O)c1ccc(Cl)cc1)C[C@@H]3OC1CC(N)C(O)C(C)O1 (some centres not stated),T/C,"dose: 0.12 mg/kg/injection, schedule: Q01DX009 (ip), vehicle: water",110 % of control
same,T/C,"dose: 0.5 mg/kg/injection, schedule: Q01DX009 (ip), vehicle: water",155 % of control
same,T/C,"dose: 1.0 mg/kg/injection, schedule: Q01DX009 (ip), vehicle: water",180 % of control
same,T/C,"dose: 2.0 mg/kg/injection, schedule: Q01DX009 (ip), vehicle: water",161 % of control and 166 % of control
same,T/C,"dose: 4.0 mg/kg/injection, schedule: Q01DX009 (ip), vehicle: water",211 % of control
same,T/C,"dose: 5.0 mg/kg/injection, schedule: Q01DX001 (ip), vehicle: water",181 % of control
same,T/C,"dose: 8.0 mg/kg/injection, schedule: Q01DX009 (ip), vehicle: water",109 % of control
same,T/C,"dose: 10.0 mg/kg/injection, schedule: Q01DX001 (ip), vehicle: water",192 % of control
same,T/C,"dose: 20.0 mg/kg/injection, schedule: Q01DX001 (ip), vehicle: water",108 % of control
C1=CC(=CN2CCc3ccccc3C2)C=C1,T/C,"dose: 60.0 mg/kg/injection, schedule: Q01DX005 (ip), vehicle: Klucel (hydroxypropylcellulose) (HPC)",101 % of control
same,T/C,"dose: 120.0 mg/kg/injection, schedule: Q01DX005 (ip), vehicle: Klucel (hydroxypropylcellulose) (HPC)",102 % of control
same,T/C,"dose: 240.0 mg/kg/injection, schedule: Q01DX005 (ip), vehicle: Klucel (hydroxypropylcellulose) (HPC)",103 % of control
CCCCOC(=O)C(C)OC(=O)Nc1cccc(C)c1 (configuration not stated),T/C,[1],105 % of control
same,T/C,"dose: 200.0 mg/kg/injection, schedule: Q04DX002 (ip), vehicle: Klucel (hydroxypropylcellulose) (HPC)",103 % of control
same,T/C,"dose: 400.0 mg/kg/injection, schedule: Q04DX002 (ip), vehicle: Klucel (hydroxypropylcellulose) (HPC)",100 % of control
C/C(=C\[P+](c1ccccc1)(c1ccccc1)c1ccccc1)N1CC1,T/C,"dose: 6.0 mg/kg/injection, schedule: Q01DX001 (ip), vehicle: saline with Tween-80",107 % of control and 115 % of control
same,T/C,"dose: 9.0 mg/kg/injection, schedule: Q01DX001 (ip), vehicle: saline with Tween-80",101 % of control and 113 % of control
same,T/C,"dose: 12.0 mg/kg/injection, schedule: Q01DX001 (ip), vehicle: saline with Tween-80",105 % of control and 108 % of control
same,T/C,"dose: 12.5 mg/kg/injection, schedule: Q01DX001 (ip), vehicle: saline with Tween-80",123 % of control
same,T/C,"dose: 18.0 mg/kg/injection, schedule: Q01DX001 (ip), vehicle: saline with Tween-80",105 % of control and 113 % of control
CCC12OCCN1CC(C)O2 (configuration not stated),T/C,[2],98 % of control
same,T/C,"dose: 100.0 mg/kg/injection, schedule: Q01DX009 (ip), vehicle: saline with Tween-80",111 % of control
same,T/C,"dose: 200.0 mg/kg/injection, schedule: Q01DX009 (ip), vehicle: saline with Tween-80",113 % of control
same,T/C,"dose: 400.0 mg/kg/injection, schedule: Q01DX009 (ip), vehicle: saline with Tween-80",119 % of control
S=C(S)NN1CCCC1,T/C,"dose: 12.5 mg/kg/injection, schedule: Q01DX009 (ip), vehicle: saline with Tween-80",100 % of control
same,T/C,"dose: 25.0 mg/kg/injection, schedule: Q01DX009 (ip), vehicle: saline with Tween-80",100 % of control
same,T/C,[2],100 % of control
O=C(CI)Nc1cccc(C(=O)O)c1O,T/C,"dose: 12.5 mg/kg/injection, schedule: Q01DX009 (ip), vehicle: Klucel (hydroxypropylcellulose) (HPC)",101 % of control
same,T/C,"dose: 25.0 mg/kg/injection, schedule: Q01DX009 (ip), vehicle: Klucel (hydroxypropylcellulose) (HPC)",113 % of control
same,T/C,"dose: 50.0 mg/kg/injection, schedule: Q01DX009 (ip), vehicle: Klucel (hydroxypropylcellulose) (HPC)",99 % of control
Cc1nc2c(cnn2C)c(=O)[nH]1,T/C,"dose: 50.0 mg/kg/injection, schedule: Q01DX005 (ip), vehicle: Klucel (hydroxypropylcellulose) (HPC)",96 % of control
same,T/C,"dose: 100.0 mg/kg/injection, schedule: Q01DX005 (ip), vehicle: Klucel (hydroxypropylcellulose) (HPC)",98 % of control
same,T/C,"dose: 200.0 mg/kg/injection, schedule: Q01DX005 (ip), vehicle: Klucel (hydroxypropylcellulose) (HPC)",97 % of control
CCCCCCCCCCCC1(O)OC(=O)C(C)=C1C (configuration not stated),T/C,"dose: 12.5 mg/kg/injection, schedule: Q04DX003 (ip), vehicle: saline with Tween-80",101 % of control
same,T/C,"dose: 25.0 mg/kg/injection, schedule: Q04DX003 (ip), vehicle: saline with Tween-80",108 % of control
same,T/C,"dose: 50.0 mg/kg/injection, schedule: Q04DX003 (ip), vehicle: saline with Tween-80",103 % of control
CC(C)=NNc1cc(N)nc2c1ncn2C1OC(CO)C(O)C1O (configuration not stated),T/C,"dose: 12.5 mg/kg/injection, schedule: Q01DX005 (ip), vehicle: water",97 % of control
same,T/C,"dose: 25.0 mg/kg/injection, schedule: Q01DX005 (ip), vehicle: water",94 % of control
same,T/C,"dose: 50.0 mg/kg/injection, schedule: Q01DX005 (ip), vehicle: water",98 % of control
same,T/C,"dose: 100.0 mg/kg/injection, schedule: Q01DX005 (ip), vehicle: water",96 % of control
same,T/C,"dose: 200.0 mg/kg/injection, schedule: Q01DX005 (ip), vehicle: water",106 % of control
Nc1ccc(SCCOC(c2ccccc2)(c2ccccc2)c2ccccc2)cc1,T/C,"dose: 100.0 mg/kg/injection, schedule: Q04DX003 (ip), vehicle: saline",101 % of control
same,T/C,"dose: 200.0 mg/kg/injection, schedule: Q04DX003 (ip), vehicle: saline",99 % of control
same,T/C,"dose: 400.0 mg/kg/injection, schedule: Q04DX003 (ip), vehicle: saline",102 % of control
[N-]=[N+]=CC(=O)CCC(=O)C=[N+]=[N-],T/C,"dose: 0.75 mg/kg/injection, schedule: Q01DX009 (ip), vehicle: other",123 % of control
same,T/C,"dose: 0.78 mg/kg/injection, schedule: Q01DX007 (ip), vehicle: DMSO",101 % of control
same,T/C,"dose: 1.56 mg/kg/injection, schedule: Q01DX007 (ip), vehicle: DMSO",117 % of control
same,T/C,"dose: 3.0 mg/kg/injection, schedule: Q01DX009 (ip), vehicle: other",170 % of control
same,T/C,"dose: 6.0 mg/kg/injection, schedule: Q01DX009 (ip), vehicle: other",104 % of control
same,T/C,"dose: 6.25 mg/kg/injection, schedule: Q01DX007 (ip), vehicle: DMSO",158 % of control
same,T/C,"dose: 12.5 mg/kg/injection, schedule: Q01DX007 (ip), vehicle: DMSO",93 % of control
same,T/C,"dose: 25.0 mg/kg/injection, schedule: Q01DX007 (ip), vehicle: DMSO",93 % of control
CC(=O)OC1=CC(OC(C)=O)C2C(=O)C3=C(C(=O)c4ccccc4C3=O)C(=O)C2C1 (configuration not stated),T/C,"dose: 100.0 mg/kg/injection, schedule: Q01DX001 (ip), vehicle: Klucel (hydroxypropylcellulose) (HPC)",105 % of control
same,T/C,"dose: 200.0 mg/kg/injection, schedule: Q01DX001 (ip), vehicle: Klucel (hydroxypropylcellulose) (HPC)",102 % of control
same,T/C,"dose: 400.0 mg/kg/injection, schedule: Q01DX001 (ip), vehicle: Klucel (hydroxypropylcellulose) (HPC)",93 % of control
COC(=O)C1=NC(=S)N=C(C(=O)OC)C1(C)C(=O)c1ccccc1,T/C,"dose: 60.0 mg/kg/injection, schedule: Q01DX005 (ip), vehicle: saline",95 % of control
same,T/C,"dose: 120.0 mg/kg/injection, schedule: Q01DX005 (ip), vehicle: saline",95 % of control
same,T/C,"dose: 240.0 mg/kg/injection, schedule: Q01DX005 (ip), vehicle: saline",118 % of control
Cc1ccc(-n2c(C)nc3c(c(C)c(C)n3-c3ccccc3)c2=N)cc1,T/C,"dose: 6.25 mg/kg/injection, schedule: Q01DX005 (ip), vehicle: Klucel (hydroxypropylcellulose) (HPC)",90 % of control
same,T/C,"dose: 12.5 mg/kg/injection, schedule: Q01DX005 (ip), vehicle: Klucel (hydroxypropylcellulose) (HPC)",100 % of control
same,T/C,"dose: 25.0 mg/kg/injection, schedule: Q01DX005 (ip), vehicle: Klucel (hydroxypropylcellulose) (HPC)",98 % of control
COc1cc2ccnc(CCCc3nccc4cc(OC)c(OC)cc34)c2cc1OC,T/C,"dose: 25.0 mg/kg/injection, schedule: Q04DX002 (ip), vehicle: Klucel (hydroxypropylcellulose) (HPC)",101 % of control
same,T/C,"dose: 50.0 mg/kg/injection, schedule: Q04DX002 (ip), vehicle: Klucel (hydroxypropylcellulose) (HPC)",95 % of control
same,T/C,[1],101 % of control and 104 % of control
